# ChEMBL document CHEMBL1150755, “2,4,5-trimethoxystyrene, a bioactive component of the bark of Duguetia panamensis” (J Nat Prod, 1988)
# Legend:
# Artemia = assay: Toxicity in brine shrimp; type: organism-based; conditions: in vivo
# [1] = Cytotoxicity against human 9KB cells; type: functional; conditions: read-out: ED50 (the source's name)
# [2] = Cytotoxicity against mouse 9PS cells; type: functional; conditions: read-out: ED50 (the source's name)
compound,measurement,setting,value
C=Cc1cc(OC)c(OC)cc1OC,LC50,Artemia,8 ppm
same,EC50,[1],42 µg/mL
same,EC50,[2],27 µg/mL
